Like-named read-outs stand apart in the source and are kept apart here.
Experiments:
[1] = test system: dopamine release from the guinea pig cochlea preparation
Description: The bulla tympani of a male guinea pig (weighing 150-350 g) was opened. The bony capsule of the cochlea was removed under stereomicroscopic guidance and the stria vascularis was stripped and the cochlea was fractured at the basis of the modiolus. The preparation contained the ganglion spirale, the afferent auditory fibers, the axons and axon terminals of the efferent bundles and both the inner and outer hair cells. All experiments were carried out in a perilimph-like solution, which contained […], 3.5 mM KCl, 1 mM CaCl2, 1 mM MgCl2, 2.75 mM HEPES and 2.25 mM Tris-OH at the temperature of 37° C. and pH 7.4. The osmolality was set by D-glucose and continuously saturated by 100% O2.
The cochleae were incubated with 0.2 μM [3H]dopamine (Amersham, UK, spec. act.: 31.0 Ci/mmol, 6 μCi in 1 ml) for 35 min. Each cochlea was then placed in a microvolume plexi chamber and superfused at 3 ml/min with perilymph-like solution. After 1 hour pre-perfusion the outflow was collected into 3 min-fractions. The released activity was determined by assaying […] of each sample with liquid scintillation spectrometry (Packard Tri-Carb 1900TR). After collecting samples for 57 minutes (19 fractions) each cochlea was transferred from the microchambers to 500 μl of 10% trichloroacetic acid for one day and 100 μl was assayed for tissue radioactivity. […] Electrical field stimulation was applied for one fraction period (3 min, 360 pulses) at 60 V, 2 Hz and 0.5 ms duration at the 3rd and 13th fractions. The pulses were delivered by a Grass S88 stimulator (West Warwick, USA) through platinum electrodes at the top and bottom of the tissue chamber.
To best describe the release of dopamine during one collecting period, the fractional release (FR) of the tritium-outflow was determined as the percentage of total radioactivity present in the tissue at the time of sample collection. The fractional release evoked by field stimulations (S1 and S2) was calculated by the area-under-the-curve, i.e., by subtracting the mean of the basal release from the total fractional release during the electrical stimulation (Halmos G, Gáborján A, Lendvai B, Répássy G, Z Szabó L, Vizi E S, (2000) Veratridine-evoked release of dopamine from guinea pig isolated cochlea. Hear Res 144: 89-96, Halmos G, Lendvai B, Gáborján A, Baranyi M, Z Szabó L, Csokonai Vitéz L, (2002) Simultaneous measurement of glutamate and dopamine release from isolated guinea pig cochlea. Neurochem Int 40: 243-248). The effects of drugs on the field stimulation-evoked [^3H]dopamine release were expressed by the calculated ratio of FRS2 over FRS1, in the presence and in the absence of the drug, respectively. The effect of drugs on the resting outflow of tritium was determined as the ratio of the sum of the two highest consecutive resting FR values in the presence of the drug and before the drug reached the cochleae (FRR2/FRR1). Data are expressed as the means±S.E.M. ANOVA was used for statistical analysis. Tukey post-hoc test was applied to determine the significance of pair wise comparisons.

[2] = test system: neomycin-induced hearing loss; conditions: mice
Description: Left ears were left for vehicle control (NaCl injection). […] Click stimulations to the ear including various frequencies were used to evoke the auditory response in the brainstem that was measured by multiple electrodes placed on the head of the animal.

[3] = test system: neomycin-induced hearing loss; conditions: guinea pigs
Description: Guinea pigs weighing 250-300 g were used in all experiments. All interventions (including ABR measurements and intratympanic treatments) are performed under general anesthesia using i.p. injection of a cocktail of Ketamine and Xylazine.
A loudspeaker is placed in each ear and the ABR responses were detected by four surface electrodes. These electrodes are placed two in the mastoid region and one in vertex as positive and fourth electrode was placed on forehead as the ground electrode. Calibrated acoustic signals are obtained to evoke brainstem response. The visual detection threshold is determined by decrement sound pressure in 5 dB steps. The evoked responses are then filtered and averaged with 500 sweeps using a signal processor. All ABR tests are performed bilaterally and baseline Peak Equivalent Sound Pressure Levels (PESPLs) are obtained in terms of decibel (dB). All animals undergo baseline hearing test (ABR) before any kind of treatment in order to rule out previous hearing loss. Control ABR threshold measurements are compared to pretreatment values. Auditory threshold shift is subjected to statistical analysis, statistical significance is determined.
A fine needle is used for myringotomy and drugs are delivered through the same needle. The whole middle ear is filled until the fluid can be seen in the external auditory canal. […] Concentration is calculated using this volume. […]

In the case of `C#CCN[C@@H]1CCc2ccccc21` [Rasagiline, R(+)-N-propargyl-1-aminoindan], the “field stimulation-evoked dopamine release (FRS2/FRS1)” value ([1]; 100 μM Rasagiline) is reported as “increase was significant”, the “evoked dopamine release, all timing groups vs control” value ([1]; 100 μM, 3-21 min perfusion) is reported as “significant enhancement” and the “resting release of dopamine (FRR2/FRR1)” value ([1]; 100 μM, longest duration, 21 minutes prior to stimulation) is reported as “failed to induce significant differences”. The “field stimulation-evoked dopamine release (FRS2/FRS1)” value ([1]; 300 μM Rasagiline) was “increase was significant”, the “effect on dopamine release, concentration dependence” value ([1]; 1-300 μM, FIG. 2) was “concentration dependent” and the “cochlear DA release” value ([1]; higher doses (of 1, 10, 100, 300 μM), added 15 min prior to second field stimulation) was “elevate”. For the same compound, the cochlear dopamine release ([1]; low concentration (of 1, 10, 100, 300 μM), added 15 min prior to second field stimulation) was “did not change”, the “hearing threshold compared to threshold prior to neomycine treatment” value ([2]; 0.5 mg Rasagiline intratympanically together with neomycine) was “remained unchanged” and the “protection against ototoxic effect of neomycine” value ([2]; intraperitoneally 50 mg/kg daily, day of neomycine treatment and next three days) was “could not prevent”. For the same compound, the “hearing threshold compared to threshold prior to neomycine treatment” value ([3]; Rasagiline intratympanically together with neomycine) was “remains unchanged” and the “protection against ototoxic effect of neomycine” value ([3]; intraperitoneally on day of neomycine treatment and next three days) was “can not prevent”.

Reference: US8188149B2, “Use of R(+)-N-propargy1-1-aminoindan to treat or prevent hearing loss” (Teva Pharmaceutical Industries, Ltd., priority 2007, dated 2012)
